Laboratory results: patent publication US20220184172A1, “AMPK/CASPASE-6 AXIS CONTROLS LIVER DAMAGE IN NONALCOHOLIC STEATOHEPATITIS” (The Regents of the University of California, priority 2019, published 2022)

How the values were obtained:
[1] = test system: C57BL/6J mice fed 45% HFD; details: 30 mg/kg twice per day for 7 days; cited from earlier work
[2] = test system: caspase-6 activity in primary hepatocytes; experiment: Caspase-6 activity induced by palmitic acid in primary hepatocytes; assay type: cell-based, mice; details: 40 μM pretreatment 1 hr, then 250 μM BSA-conjugated palmitic acid 2 hrs
Method: FIGS. 5A-5K. AMPK phosphorylates caspase-6 to inhibit its cleavage and activation. FIG. 5A. Primary hepatocytes were pretreated 40 μM A-769662 for 1 hr, then treated 30 μg/ml CHX and 50 ng/ml TNFα for 2 hrs. IB analysis of cell lysates. n=3. Mean±SD. *, P<0.05, two-way ANOVA. FIG. 5B. Primary hepatocytes were pretreated 40 μM A-769662 for 1 hr, then treated 250 μM BSA-conjugated palmitic acid (PA) for 2 hrs. Cell lysates were subject to caspase-6 activity assay. Mean±SD. *, P<0.05. FIG. 5C. Caspase-6 Ser^257 locates within AMPK substrate motif. FIG. 5C. discloses SEQ ID NOS 57-63, respectively, in order of appearance. FIG. 5D. In vitro kinase assay using recombinant caspase-6, and recombinant AMPKα1β1γ1 or AMPKα2β1γ1 active kinase. FIG. 5E. Alignment of caspase-6 sequence. FIG. 5E. discloses SEQ ID NOS 64-67, respectively, in order of appearance. FIG. 5F. HEK293T cells overexpressing caspase-6-myc WT, S^257A, S^257D or S^257E mutant were treated with 10 μg/ml CHX and 25 ng/ml TNFα for 2 hrs. IB analysis of cell lysates. FIGS. 5G-5J. […] Quantification of aCasp6 staining per field in FIG. 5I. n=7. […]
Cell/tissue was homogenized with lysis buffer. Caspase-6 activity was determined with Caspase-6 Colorimetric Assay Kit (Biovision, Cat. K115), according to manufacturer's instruction. […]

CD-HFD fed C57BL/6J mice = experiment: AMPK agonist A-769662 in CD-HFD-induced NASH, C57BL/6J mice; assay type: in vivo
Method: FIGS. 4A-4L. Both an AMPK agonist and a caspase-6 inhibitor therapeutically improve liver damage. FIG. 4A-4I. C57BL/6J mice were fed CD-HFD for 6 weeks, followed by intraperitoneally injection of 25 mg/kg A-769662 or vehicle daily for 2 weeks while continuous CD-HFD. FIG. 4A. Liver sections stained as indicated: TUNEL and DAPI. In the merged image section, the different stains correspond to the grayscale shades as indicated in the single stained images to the left. Scale bar=50 μm. FIG. 4B. Quantification of TUNEL-positive nuclei per field in FIG. 4A. n=7. FIG. 4C-4E. Serum ALT (FIG. 4C), AST (FIG. 4D) and ALP (FIG. 4E). n=7. FIG. 4F. H&E and Sirius red staining of liver sections as indicated. Scale bar=100 μm. FIG. 4G. Quantification of liver fibrosis area (% of total area) in FIG. 4F. n=7. FIG. 4H. Liver hydroxyproline. n=8. FIG. 4I. Expression of Tgfb, Timp1, Col1a1, Col3a1, Pdgfa, Pdgfb, Pdgfra and Ddr2 in livers. n=8. *, P<0.05, Student's unpaired t test. FIGS. 4J-4L. Flox and LAKO mice were fed CD-HFD for 6 weeks, followed by intraperitoneally injection of 5 mg/kg VEID (SEQ ID NO: 71) or vehicle every other day for 2 weeks while continuous feeding. FIG. 4J. Liver sections stained as indicated (TUNEL and DAPI); in the merged image sections, the different stains correspond to the grayscale shades as indicated in the single stained images to the left. Scale bar=50 μm. FIG. 4K. Quantification of TUNEL-positive nuclei per field in FIG. 4J. n=5-6. FIG. 4L. Serum ALT. n=5-6. Mean±SEM. *, P<0.05, two-way ANOVA. FIG. 4 discloses “VEID” as SEQ ID NO: 71.
FIGS. 5A-5K. AMPK phosphorylates caspase-6 to inhibit its cleavage and activation. FIG. 5A. Primary hepatocytes were pretreated 40 μM A-769662 for 1 hr, then treated 30 μg/ml CHX and 50 ng/ml TNFα for 2 hrs. IB analysis of cell lysates. n=3. Mean±SD. *, P<0.05, two-way ANOVA. FIG. 5B. Primary hepatocytes were pretreated 40 μM A-769662 for 1 hr, then treated 250 μM BSA-conjugated palmitic acid (PA) for 2 hrs. Cell lysates were subject to caspase-6 activity assay. Mean±SD. *, P<0.05. FIG. 5C. Caspase-6 Ser^257 locates within AMPK substrate motif. FIG. 5C. discloses SEQ ID NOS 57-63, respectively, in order of appearance. FIG. 5D. In vitro kinase assay using recombinant caspase-6, and recombinant AMPKα1β1γ1 or AMPKα2β1γ1 active kinase. FIG. 5E. Alignment of caspase-6 sequence. FIG. 5E. discloses SEQ ID NOS 64-67, respectively, in order of appearance. FIG. 5F. HEK293T cells overexpressing caspase-6-myc WT, S^257A, S^257D or S^257E mutant were treated with 10 μg/ml CHX and 25 ng/ml TNFα for 2 hrs. IB analysis of cell lysates. FIGS. 5G-5J. C57BL/6J mice were fed CD-HFD for 6 weeks, followed by intraperitoneally injection of 25 mg/kg A-769662 or vehicle daily for 2 weeks while continuous CD-HI-D. Mice were sacrificed 6 hrs after last injection. FIG. 5G. IB analysis of liver lysates. n=5. FIG. 5H. Liver lysates were subject to caspase-6 activity assay. n=7. FIG. 5I. Liver sections stained as indicated therein (aCasp6 and DAPI); in the merged image sections, the different stains correspond to the grayscale shades as indicated in the single stained images to the left. Scale bar=50 μm. FIG. 5J. Quantification of aCasp6 staining per field in FIG. 5I. n=7. Mean±SEM. *, P<0.05, Student's unpaired t test. FIG. 5K. IB analysis of liver lysates from C57BL/6J mice fed ND or CD-HFD. Note: AMPK and pAMPK blots are the same as in FIG. 1B.
FIGS. 13A-13I. A-769662 improves liver damage through AMPK activation in hepatocytes in NASH. C57BL/6J mice were fed with CD-HFD for 8 weeks. After 6 weeks of CD-HFD feeding, mice were intraperitoneally injected with 25 mg/kg A-769662 or vehicle daily for 2 weeks along with continuous CD-HFD feeding. FIG. 13A. Schematic diagram of experimental design. FIG. 13B-13C. Body weight (FIG. 13B) and liver weight (FIG. 13C) of indicated mice. n=7. FIG. 13D. Measurement of liver triglyceride (TG) of indicated mice. n=7. FIG. 13E. […]

[3] = 25 mg/kg i.p. daily for 2 weeks, CD-HFD
[4] = 25 mg/kg i.p. daily for 2 weeks, CD-HFD, sacrificed 6 hrs after last injection
[5] = 25 mg/kg i.p. once per day for two weeks after 6 weeks CD-HFD

## N#Cc1c(O)c2c(-c3ccc(-c4ccccc4O)cc3)csc2[nH]c1=O [A-769662]
[1]
  hepatic triglycerides: reduced
[2]
  induction of caspase-6 activity by PA: inhibited
CD-HFD fed C57BL/6J mice; 25 mg/kg i.p. daily for 2 weeks after 6 weeks CD-HFD
  hepatic fibrosis (Sirius red fibrosis area, liver hydroxyproline): attenuated
CD-HFD fed C57BL/6J mice; [3]
  expression of Col1a1 in liver: significantly reduced
  expression of Col3a1 in liver: significantly reduced
  expression of Ddr2 in liver: without effect
  expression of Pdgfa in liver: significantly reduced
  expression of Pdgfb in liver: significantly reduced
  expression of Pdgfra in liver: significantly reduced
  expression of Tgfb in liver: without effect
  expression of inflammation marker gene Adgre1 in liver: without effect
  expression of inflammation marker gene Ccl2 in liver: without effect
CD-HFD fed C57BL/6J mice; 25 mg/kg i.p. daily for 2 weeks, CD-HFD-induced NASH
  aCasp6 (active caspase-6) staining of liver sections: decreased
CD-HFD fed C57BL/6J mice; [4]
  caspase-6 activity in vivo (liver lysates): decreased
  procaspase-6 Ser257 phosphorylation (IB of liver lysates): significantly increased
CD-HFD fed C57BL/6J mice; [5]
  hepatic TG: no effect
  liver damage (serum ALT, AST, ALP): improved
  number of apoptotic cells (TUNEL-positive nuclei per field): significantly reduced
